The record followed here is ChEMBL document CHEMBL5338731, “Development of Neuropeptide Hemokinin-1 Analogues with Antimicrobial and Wound-Healing Activity” (J Med Chem, 2023).

The source made the active and inactive calls. No cut-off for these calls is given here.

Data set [1] relates to RAW264.7. As to the kind of experiment: Anti-inflammatory activity against LPS-stimulated mouse RAW264.7 cells assessed as reduction in IL-1beta mRNA expression level at 1 to 16 uM incubated for 4 hrs by RT-qPCR analysis. Format: functional, cell-based. The settings on record: dose 1-16 µM. (In general: In qPCR the cycle at which signal appears reflects the starting amount.)

The subject of data set [2] is NIH3T3. The data set can be described thus: Induction of cell proliferation in mouse NIH3T3 cells assessed as increase in cell viability at 0.1 to 1000 nM incubated for 48 hrs by MTT assay. The class given is functional, cell-based. The settings on record: dose 0.1-1000 nM.
The subject of data set [3] is Escherichia coli. As to the kind of experiment: Bactericidal activity against Escherichia coli ATCC 25922 assessed as reduction in colony forming unit at 1 times MIC and measured after 120 mins by time-kill kinetics assay. The class given is functional, organism-based.
Data set [4] concerns Lipopolysaccharide (LPS). As to the kind of experiment: Binding affinity to Escherichia coli O111:B4 LPS assessed as dissociation constant by ITC assay. Background: Isothermal titration calorimetry measures the heat released or taken up as one component is titrated into another.
Data set [5] concerns Escherichia coli. The data set can be described thus: Bactericidal activity against Escherichia coli ATCC 25922 assessed as reduction in colony forming unit at 2 times MIC and measured after 90 mins by time-kill kinetics assay. Format: functional, organism-based.
The subject of data set [6] is NIH3T3. The data set can be described thus: Induction of cell migration in mouse NIH3T3 cells assessed as […] at 0.1 to 1000 nM incubated for 48 hrs by phase-contrast microscopy based scratch wound healing assay. The class given is functional. The note with it: dose 0.1-1000 nM.
For data set [7], the species on record is Mus musculus. The data set can be described thus: Wound healing activity in Kunming mouse full-thickness excisional wound model assessed as increase in wound closure at 1 10^-7M, TOP BID and measured upto 8 days by image analysis. Format: functional, organism-based. The note with it: time <= 8.0 day.
Data set [8] concerns Cell membrane. The data set can be described thus: Induction of cell membrane disruption in Staphylococcus aureus ATCC 25923 assessed as separation between […] at 2 times MIC incubated for 2 hrs by TEM analysis. Format: subcellular.
The test system of data set [9] is Pseudomonas aeruginosa. The data set can be described thus: Antimicrobial activity against Pseudomonas aeruginosa PAO1 assessed as inhibition of bacterial growth incubated for 18 hrs by serial dilution method. The class given is functional.
Data set [10] deals with RAW264.7. The data set can be described thus: Anti-inflammatory activity in LPS-stimulated mouse RAW264.7 cells assessed as inhibition of NO production at 16 uM incubated for 24 hrs by Griess reagent based assay. Format: functional, cell-based. Background: Nitrite, measured by Griess reagent, commonly stands in for NO production.
Data set [11] has as its system Cell membrane. The data set can be described thus: Induction of cell membrane disruption in Escherichia coli ATCC 25922 assessed as separation between outer membrane and cytoplasmic membrane at 2 times MIC incubated for 2 hrs by TEM analysis. The class given is subcellular.
In data set [12] the test system is RAW264.7. The data set can be described thus: Anti-inflammatory activity against LPS-stimulated mouse RAW264.7 cells assessed as reduction in IL-6 mRNA expression level at 1 to 16 uM incubated for 4 hrs by RT-qPCR analysis. The class given is functional, cell-based. The note with it: dose 1-16 µM.
Data set [13] concerns Staphylococcus aureus. As to the kind of experiment: Antimicrobial activity against Staphylococcus aureus ATCC 25923 assessed as inhibition of bacterial growth incubated for 18 hrs by serial dilution method. Format: functional.
For data set [14], the system named is Cell membrane. As to the kind of experiment: Induction of cell membrane disruption in Escherichia coli ATCC 25922 assessed as distinct wrinkling in cell morphology at 2 times MIC incubated for 2 hrs by SEM analysis. Format: subcellular.
Data set [15] concerns Cell membrane. The data set can be described thus: Induction of outer cell membrane permeability in Escherichia coli ATCC 25922 assessed as increase fluoresence intensity at 1 to 8 times of MIC and measured every mins for 15 mins by NPN uptake assay. Format: subcellular.
The species entered for data set [16] is Mus musculus. The data set can be described thus: Wound healing activity in Kunming mouse full-thickness excisional wound model with splints assessed as increase in wound healing rate at 1 10^-7M, TOP BID and measured upto 8 days by image analysis. The class given is functional, organism-based. The settings on record: time <= 8.0 day.
Data set [17] relates to Staphylococcus aureus. The data set can be described thus: Bactericidal activity against Staphylococcus aureus ATCC 25923 assessed as reduction in colony forming unit at 1 to 4 times MIC and measured after 120 mins by time-kill kinetics assay. Format: functional, organism-based.
Data set [18] concerns HEK293. The data set can be described thus: Induction of cell proliferation in human HEK293 cells expressing NK1R assessed as increase in cell viability at 0.1 to 1000 nM incubated for 48 hrs by MTT assay. Format: functional, cell-based. The settings on record: dose 0.1-1000 nM.
Data set [19] is filed under the species Mus musculus. As to the kind of experiment: Wound healing activity in STZ-induced Kunming mouse diabetic wound model assessed as increase in wound repair at 1 10^-7M, TOP BID and measured upto 8 days by image analysis. The class given is functional, organism-based. The note with it: time <= 8.0 day.
Data set [20] concerns Cell membrane. The data set can be described thus: Induction of cell membrane disruption in Staphylococcus aureus ATCC 25923 assessed as PI uptake at 2 times MIC incubated for 1 hrs by PI staining based confocal laser scanning microscopy. The class given is subcellular.
Data set [21] has as its system Escherichia coli. As to the kind of experiment: Antimicrobial activity against Escherichia coli ML-35 assessed as inhibition of bacterial growth incubated for 18 hrs by serial dilution method. The class given is functional.
Data set [22] concerns Cell membrane. The data set can be described thus: Induction of cell membrane disruption in Escherichia coli ATCC 25922 assessed as PI uptake at 2 times MIC incubated for 1 hrs by PI staining based confocal laser scanning microscopy. Format: subcellular.
In data set [23] the test system is RAW264.7. As to the kind of experiment: Anti-inflammatory activity against LPS-stimulated mouse RAW264.7 cells assessed as reduction in TNF-alpha mRNA expression level at 1 to 16 uM incubated for 4 hrs by RT-qPCR analysis. The class given is functional, cell-based. The settings on record: dose 1-16 µM.
For data set [24], the species on record is Mus musculus. The data set can be described thus: Wound healing activity in Staphylococcus aureus ATCC 25923 infected Kunming mouse excisional wound model assessed as increase in wound repair at 1 10^-4M, TOP BID and measured upto 8 days by image analysis. Format: functional, organism-based. The note with it: time <= 8.0 day.
Data set [25] deals with Escherichia coli. The data set can be described thus: Antimicrobial activity against Escherichia coli ATCC 25922 assessed as inhibition of bacterial growth incubated for 18 hrs by serial dilution method. The class given is functional.
Data set [26] in a line: Cytotoxicity against mouse RAW264.7 cells assessed as cell survival rate at 16 uM incubated for 24 hrs by MTT assay. The note with it: read-out: Survival. The class given is toxicity, cell-based.
Data set [27] has as its system Cell membrane. As to the kind of experiment: Induction of cell membrane disruption in Escherichia coli ATCC 25922 assessed as coagulation of cytoplasmic elements at 2 times MIC incubated for 2 hrs by TEM analysis. Format: subcellular.
For data set [28], the species on record is Mus musculus. As to the kind of experiment: Antimicrobial activity in Staphylococcus aureus ATCC 25923 infected Kunming mouse excisional wound model assessed as decrease in bacterial growth at 1 10^-4M, TOP BID and measured upto 8 days by image analysis. The class given is functional, organism-based. The note with it: time <= 8.0 day.
In data set [29] the test system is Pseudomonas aeruginosa. As to the kind of experiment: Antimicrobial activity against Pseudomonas aeruginosa ATCC 27853 assessed as inhibition of bacterial growth incubated for 18 hrs by serial dilution method. Format: functional.
Data set [30] deals with Cell membrane. The data set can be described thus: Induction of cell membrane disruption in Staphylococcus aureus ATCC 25923 assessed as membrane blebbing at 2 times MIC incubated for 2 hrs by SEM analysis. The class given is subcellular.
Data set [31] deals with Staphylococcus aureus. As to the kind of experiment: Antimicrobial activity against Staphylococcus aureus ATCC 29213 assessed as inhibition of bacterial growth incubated for 18 hrs by serial dilution method. Format: functional.
The subject of data set [32] is Cell membrane. As to the kind of experiment: Induction of inner cell membrane permeabilization in Escherichia coli ML-35 assessed as increase in absorbance at 1 to 8 times of MIC and measured every 5mins for 90 mins by ONPG beta-galactosidase based assay. The class given is subcellular.
In data set [33] the test system is Cell membrane. The data set can be described thus: Induction of cell membrane disruption in Staphylococcus aureus ATCC 25923 assessed as distinct wrinkling in cell morphology at 2 times MIC incubated for 2 hrs by SEM analysis. The class given is subcellular.
Data set [34] can be described thus: Hemolytic activity in mouse erythrocytes assessed as haemoglobin release at 400 uM incubated for 1 hrs by microplate reader method. The settings on record: read-out: Activity. Format: toxicity, cell-based, Erythrocyte.
The species named for data set [35] is Mus musculus. The data set can be described thus: Wound healing activity in Kunming mouse full-thickness excisional wound model assessed as increase in wound closure at 0.1 to 10 uM, TOP BID and measured upto 8 days by image analysis. The class given is functional, organism-based. The note with it: dose 0.1-10 µM, time <= 8.0 day.
Data set [36] has as its system Cell membrane. As to the kind of experiment: Induction of cell membrane disruption in Staphylococcus aureus ATCC 25923 assessed as sparse cytoplasmic distribution at 2 times MIC incubated for 2 hrs by TEM analysis. The class given is subcellular.
Data set [37] concerns Cell membrane. As to the kind of experiment: Induction of cell membrane disruption in Escherichia coli ATCC 25922 assessed as membrane blebbing at 2 times MIC incubated for 2 hrs by SEM analysis. Format: subcellular.
Data set [38] relates to Cell membrane. As to the kind of experiment: Induction of cell membrane disruption in Staphylococcus aureus ATCC 25923 assessed as coagulation of cytoplasmic elements at 2 times MIC incubated for 2 hrs by TEM analysis. Format: subcellular.
The test system of data set [39] is Escherichia coli. The data set can be described thus: Bactericidal activity against Escherichia coli ATCC 25922 assessed as reduction in colony forming unit at 4 times MIC and measured after 60 mins by time-kill kinetics assay. The class given is functional, organism-based.
Data set [40] has as its system HEK293. As to the kind of experiment: Induction of cell proliferation in human HEK293 cells assessed as increase in cell viability at 0.1 to 1000 nM incubated for 48 hrs by MTT assay. Format: functional, cell-based. The note with it: dose 0.1-1000 nM.
Data set [41] has as its system Cell membrane. As to the kind of experiment: Induction of cell membrane disruption in Escherichia coli ATCC 25922 assessed as sparse cytoplasmic distribution at 2 times MIC incubated for 2 hrs by TEM analysis. The class given is subcellular.
Data set [42] concerns Staphylococcus aureus. As to the kind of experiment: Bactericidal activity against Staphylococcus aureus ATCC 25923 assessed as reduction in colony forming unit at 2 times MIC and measured after 120 mins by time-kill kinetics assay. The class given is functional, organism-based.
For data set [43], the system named is Bacillus subtilis. As to the kind of experiment: Antimicrobial activity against Bacillus subtilis ATCC 23857 assessed as inhibition of bacterial growth incubated for 18 hrs by serial dilution method. Format: functional.
The nature of data set [44]: Hemolytic activity in mouse erythrocytes assessed as haemoglobin release at 10 uM incubated for 1 hrs by microplate reader method. Format: toxicity, cell-based, Erythrocyte. The settings on record: read-out: Activity.

For H-LKKWLKKWTLKASQFFGLM-NH2, the Activity entry in [1], in [12], in [15] and in data set [23] was “Dose-Dependent Effect” throughout. Besides, the outcome in [2], in [3], in data set [5], in data set [6], in data set [7] and in [8] was Active. For the same compound, the result in data set [11], in data set [14], in data set [16], in data set [17], in data set [18] and in [19] was Active. Also, the outcome in data set [20], in data set [22], in data set [27], in data set [28], in data set [30] and in [32] was Active. In addition, the result in data set [33], in data set [36], in data set [37], in data set [38], in [39] and in data set [41] was Active. In data set [42], the result was Active. In addition, the Kd (in general, a measure of binding affinity in units of concentration) in [4] was determined as 13.4 µM. Besides, the minimal inhibitory concentration (MIC) (as a rule, the lowest concentration found to suppress growth) amounted to 2 µM in data set [9]; 2 µM in data set [13]; 2 µM in data set [21]; 2 µM in [25]; 2 µM in [29]; 4 µM in data set [31]. For the same compound, the MIC in [43] was 2 µM. The inhibition result in data set [10] was “Active”. Further, the result in data set [24], in data set [35] and in data set [40] was inactive. Besides, the viability at 24 h, 16 µM in data set [26] was above 90%. The hemolysis at 1 h, 400 µM in [34] worked out at 19.5%.

Turning to `CC[C@H](C)[C@H](NC(=O)CN)C(=O)NCC(=O)N[C@@H](C)C(=O)N[C@H](C(=O)N[C@@H](CC(C)C)C(=O)N[C@@H](CCCCN)C(=O)N[C@H](C(=O)N[C@@H](CC(C)C)C(=O)N[C@H](C(=O)N[C@H](C(=O)NCC(=O)N[C@@H](CC(C)C)C(=O)N1CCC[C@H]1C(=O)N[C@@H](C)C(=O)N[C@@H](CC(C)C)C(=O)N[C@H](C(=O)N[C@@H](CO)C(=O)N[C@@H](Cc1c[nH]c2ccccc12)C(=O)N[C@H](C(=O)N[C@@H](CCCCN)C(=O)N[C@@H](CCCNC(=N)N)C(=O)N[C@@H](CCCCN)C(=O)N[C@@H](CCCNC(=N)N)C(=O)N[C@@H](CCC(N)=O)C(=O)N[C@@H](CCC(N)=O)C(N)=O)[C@@H](C)CC)[C@@H](C)CC)[C@@H](C)O)[C@@H](C)O)C(C)C)C(C)C` [MELITTIN], in data set [44], the hemolysis at 1 h, 10 µM worked out at 58.8%.
